# Calls of active or inactive are those of the source. No rule for the calls is given here.
# Target: Influenza A virus M2 proton channel (A/TW/4845/1999 H1N1)
# Assay: M2 proton channel binding, NMR based, influenza A virus H1N1 strain (AID 1549)
# Conditions: NMR binding screen, M2 protein
row,Structure (SMILES),Kd
1,O=C(O)CNC(=O)c1ccc([N+](=O)[O-])cc1,> 4 mM (inactive)
2,CC1CCN(C(=O)c2cc3ccccc3o2)CC1,> 4 mM (inactive)
3,O=C(NCc1n[nH]c(=O)c2ccccc12)C1CC1,> 4 mM (inactive)
4,O=C(Cn1cncn1)c1ccc(F)c(F)c1,> 4 mM (inactive)
5,CNC(=O)c1ccccc1-c1ccccc1,> 4 mM (inactive)
6,O=C(O)c1cc2ccccc2cn1,> 4 mM (inactive)
7,COC(=O)C1=CCCN(C)C1,> 4 mM (inactive)
8,COc1ccc(/C=C/C(=O)O)cc1OC,> 4 mM (inactive)
9,COCC(=O)/C=C1\Sc2ccccc2N1C,> 4 mM (inactive)
10,CC(CO)NC(=O)C1C=C2c3cccc4[nH]cc(c34)C[C@H]2N(C)C1 (stereo not given in full),> 4 mM (inactive)
11,CNC(=O)C1CCCN(S(C)(=O)=O)C1 (stereo not given),> 4 mM (inactive)
12,Cc1ccc(C(=O)N2CCC(C(=O)O)CC2)cc1,> 4 mM (inactive)
13,NC(=O)COc1ccccc1O,> 4 mM (inactive)
14,C[n+]1ccn(C/C(N)=N/O)c1,> 4 mM (inactive)
15,NC1=C(c2ccccc2)C(=O)c2ccccc21,> 4 mM (inactive)
16,CNS(=O)(=O)c1cc(OC)ccc1OC,> 4 mM (inactive)
17,O=C(COc1ccccc1O)NCCO,> 4 mM (inactive)
18,CC(=O)Oc1cc2c(c(C)c1OC(C)=O)CC=C1[C@@]2(C)CC[C@@]2(C)C3C[C@](C)(C(=O)O)CC[C@]3(C)CC[C@]12C (stereo not given in full),> 4 mM (inactive)
19,COC1=C(OC)C(=O)C(C/C=C(\C)CC/C=C(\C)CC/C=C(\C)CC/C=C(/C)CC/C=C(\C)CC/C=C(\C)CC/C=C(\C)CC/C=C(\C)CC/C=C(\C)CCC=C(C)C)=C(C)C1=O,> 4 mM (inactive)
20,COC(=O)c1ccc(C(=S)N2CCOCC2)cc1,> 4 mM (inactive)
21,Cc1c(C(=O)O)cnn1-c1ccccc1,> 4 mM (inactive)
22,COc1ccc(-c2ccc(SCC(N)=O)nn2)cc1,> 4 mM (inactive)
23,COCc1cc(Cl)nc(-c2csc(C)n2)n1,> 4 mM (inactive)

row,Structure (SMILES),Kd
1,O=C(CSc1ncccn1)Nc1nccs1,> 4 mM (inactive)
2,Cc1nc(N)sc1C(=O)Nc1nccs1,> 4 mM (inactive)
3,CCOC(=O)CNc1ncnc2c1nnn2CC,> 4 mM (inactive)
4,COc1ccc2nc(N)sc2c1,> 4 mM (inactive)
5,O=C(Cc1c(F)cccc1Cl)Nc1ccon1,> 4 mM (inactive)
6,O=C(O[C@@H]1Cc2c(O)cc(O)cc2O[C@@H]1c1cc(O)c(O)c(O)c1-c1c([C@H]2Oc3cc(O)cc(O)c3C[C@H]2O)cc(O)c(O)c1O)c1cc(O)c(O)c(O)c1,> 4 mM (inactive)
7,CCOc1ccc(-c2n[nH]c(=S)n2C)cc1,> 4 mM (inactive)
8,OC[C@@H](O)[C@@H](O[C@@H]1O[C@H](CO)[C@@H](O)[C@H](O)[C@H]1O)[C@H](O)[C@@H](O)CO,> 4 mM (inactive)
9,CSc1n[nH]c(NCc2cccs2)n1,> 4 mM (inactive)
10,O=C(CC1NC(=O)NC1=O)Nc1ccccc1 (stereo not given),> 4 mM (inactive)
11,O=C(O)CC[N+](=O)[O-],> 4 mM (inactive)
12,Cc1noc(C)c1C(=O)NCc1cccs1,> 4 mM (inactive)
13,O=C(O)C1CCN(C(=O)c2cccs2)CC1,> 4 mM (inactive)
14,C/C=C(\C)C(=O)OC1[C@@H]2C=C3C(CC[C@]4(C)C3CC(=O)O[C@H]4c3ccoc3)C(C)(C2=O)[C@@H](C(O)C(=O)OC)C1(C)C (stereo not given in full),> 4 mM (inactive)
15,CC1=NN(c2ccc(N)cc2)C(=O)C1,> 4 mM (inactive)
16,Nc1nnc(Cc2ccc(Cl)cc2)s1,> 4 mM (inactive)
17,CC12CN(CC#N)CC(C)(CN(CC#N)C1)C2=O,> 4 mM (inactive)
18,COC(=O)NCc1cc2cc(Cl)ccc2[nH]1,> 4 mM (inactive)
19,Cn1nnc2cc(C(=O)O)ccc21,> 4 mM (inactive)
20,COc1ccc(Cc2nnc3c4cnn(C)c4ncn23)cc1,> 4 mM (inactive)
21,COC(=O)c1c[nH]c2ccccc12,> 4 mM (inactive)
22,Clc1ccccc1OCCn1ccnc1,> 4 mM (inactive)
23,CC1(C)CC(=O)c2sc(N)nc2C1,> 4 mM (inactive)

row,Structure (SMILES),Kd
1,O=C(c1cccc(-n2cnnn2)c1)N1CCOCC1,> 4 mM (inactive)
2,COc1c2c(cc3occ(-c4ccc5c(c4)OCO5)c(=O)c13)OC(C)(C)C=C2,> 4 mM (inactive)
3,O=C1C=C(O)c2ccccc2C1=O,> 4 mM (inactive)
4,CN1CN(Cc2ccccc2)CN/C1=N/[N+](=O)[O-],> 4 mM (inactive)
5,Cc1nn2c(-c3ccncc3)nnc2c2ccccc12,> 4 mM (inactive)
6,NC(=O)c1ccc(-c2ccccn2)s1,> 4 mM (inactive)
7,Nc1nnc(SCc2ccc(F)cc2Cl)s1,> 4 mM (inactive)
8,COc1ccc2nc(N)sc2n1,> 4 mM (inactive)
9,Nc1nc2ccc(S(N)(=O)=O)cc2s1,> 4 mM (inactive)
10,OCCN1CCN(C(=S)c2ccc(Cl)cc2)CC1,> 4 mM (inactive)
11,O=C1NC(=S)NC(=O)C1=Cc1cccs1,> 4 mM (inactive)
12,Cc1ccc(-c2nc(-c3cccnc3)no2)cc1,> 4 mM (inactive)
13,NC(=O)c1ccsc1N,> 4 mM (inactive)
14,COc1cc(C)nc(N(CCO)CCO)n1,> 4 mM (inactive)
15,O=C1c2ccncc2C(=O)N1CO,> 4 mM (inactive)
16,Cn1c(NCC(=O)O)nc2c1c(=O)[nH]c(=O)n2C,> 4 mM (inactive)
17,O=c1[nH]cc(CN2CCOCC2)c(=O)[nH]1,> 4 mM (inactive)
18,O=C(O)C1CC(=O)N(C2Cc3ccccc3C2)C1 (stereo not given),> 4 mM (inactive)
19,Oc1ccc(C(=S)N2CCOCC2)cc1,> 4 mM (inactive)
20,COc1ccc(N2C(=O)CCC2=O)c(OC)c1,> 4 mM (inactive)
21,COC(=O)c1cccc2cc[nH]c12,> 4 mM (inactive)
22,COc1cc2c(c(OC)c1OC)-c1ccc(O)c(=O)cc1[C@@H](NC(C)=O)CC2,> 4 mM (inactive)
23,N#CCN1C(=O)c2ccccc2S1(=O)=O,> 4 mM (inactive)

row,Structure (SMILES),Kd
1,NC(=O)CSc1nc2[nH]ncc2c(=O)[nH]1,> 4 mM (inactive)
2,Cc1n[nH]c(C)c1CC(=O)O,> 4 mM (inactive)
3,CC(=O)O[C@@H]1C[C@@]2(C)[C@H](c3ccoc3)C[C@H]3O[C@]32[C@]2(C)C(=O)C(O)=C3C(C)(C)C(=O)C=C[C@]3(C)C12 (stereo not given in full),> 4 mM (inactive)
4,O=C1NC(=Nc2ccccc2)S/C1=C/c1cccnc1,> 4 mM (inactive)
5,CCOC12NC(=O)CC(=O)N1C(c1ccccc1)=CS2 (stereo not given),> 4 mM (inactive)
6,C[C@H]1C[C@@H](O)[C@]2(O)[C@@]13CC(=O)OC[C@@]2(C)[C@](C)(O)C(=O)C3,> 4 mM (inactive)
7,CCOc1ccc(C)cc1S(=O)(=O)n1ccnc1,> 4 mM (inactive)
8,CSc1nnc(-c2ccccc2NC(C)=O)o1,> 4 mM (inactive)
9,S=c1nc[nH]c2c1cnn2-c1ccccc1,> 4 mM (inactive)
10,CC(=O)NC(C)C12CC3CC(CC(C(=O)O)(C3)C1)C2 (stereo not given),> 4 mM (inactive)
11,CC(=O)Nc1ccc(C(=O)n2nc(C)cc2C)cc1,> 4 mM (inactive)
12,Cc1nnc(C)n1/N=C/c1cccs1,> 4 mM (inactive)
13,CCCCN1C(=O)N(C)C2NC(=O)NC21 (stereo not given),> 4 mM (inactive)
14,CC(=O)c1sc(NC(=O)C=C(C)C)nc1C,> 4 mM (inactive)
15,O=C(CN1C(=O)CCC1=O)c1ccccc1,> 4 mM (inactive)
16,CC(=O)C1CCC2C3CCC4C[C@H](O)CCC4(C)C3C[C@H](O)C12C (stereo not given in full),> 4 mM (inactive)
17,Nc1nc(CSc2ncn(-c3ccccc3)n2)cs1,> 4 mM (inactive)
18,CSc1nnc2c(n1)OC(C)=Nc1ccccc1-2,> 4 mM (inactive)
19,CC(=O)O[C@@H]1CC2C(C)(C)C(=O)C3OC3[C@]2(C)C2CC[C@@]3(C)[C@H](c4ccoc4)OC(=O)C4OC43[C@@]21C (stereo not given in full),> 4 mM (inactive)
20,O=C(O)c1ccc(-n2cccn2)cc1,> 4 mM (inactive)
21,CC(C)=CC1C(C(=O)O)C1(C)C (stereo not given),> 4 mM (inactive)
22,Cc1nnc(SCC(=O)N2CCc3ccccc32)s1,> 4 mM (inactive)
23,COc1ccc2c(c1OC)C(=O)OC2[C@H]1c2c(cc3c(c2OC)OCO3)CCN1C (stereo not given in full),> 4 mM (inactive)

row,Structure (SMILES),Kd
1,COc1c2c(cc3cc[n+](C)cc13)OCO2,> 4 mM (inactive)
2,CNC(=S)Nc1ccc(C(=O)O)cc1,> 4 mM (inactive)
3,Cc1nc2c(n1O)CCc1c-2no[n+]1[O-],> 4 mM (inactive)
4,O=C1CCC(=O)N1CN1CCOCC1,> 4 mM (inactive)
5,NC(=O)c1ccc(NC(=O)c2cccnc2)cc1,> 4 mM (inactive)
6,CC(=O)O[C@H]1C[C@@H](OC(C)=O)C(C)(C)C2C[C@@H](OC(C)=O)[C@]3(C)C([C@H](OC(C)=O)C[C@@]4(C)[C@H](c5ccoc5)OC(=O)[C@H]5O[C@]543)[C@]21C (stereo not given in full),> 4 mM (inactive)
7,CNc1nnc(CSc2nc(C)cc(C)n2)s1,> 4 mM (inactive)
8,COCc1cc(C)nc2sc(C(=O)OC)c(N)c12,> 4 mM (inactive)
9,CC(C)(C)C(=O)N1CCCC1C(=O)O (stereo not given),> 4 mM (inactive)
10,CC(=O)c1cnc2nc(C(F)(F)F)nn2c1C,> 4 mM (inactive)
11,CN(C)Cc1c(N)cccc1O,> 4 mM (inactive)
12,Nc1ccnc(C(=O)O)c1,> 4 mM (inactive)
13,CC(C)=CCc1c2c(c3occ(-c4ccc(O)c(O)c4)c(=O)c3c1O)C=CC(C)(C)O2,> 4 mM (inactive)
14,c1coc(-c2nc(-c3ccncc3)no2)c1,> 4 mM (inactive)
15,O=C(Nc1cccc(Cl)c1)c1cnn2cccnc12,> 4 mM (inactive)
16,CCOCC(=O)N1CCc2ccccc21,> 4 mM (inactive)
17,Cc1occc1C(=O)Nc1nnc(C2CCCCC2)s1,> 4 mM (inactive)
18,O=C(O)c1cccc2c1OCCCO2,> 4 mM (inactive)
19,CCC[C@@H]1CCCCN1,> 4 mM (inactive)
20,NC(=O)C12CC3CC(C1)C(=O)C(C3)C2,> 4 mM (inactive)
21,Cc1c(O)c(O)cc2c1CC=C1[C@@]2(C)CC[C@@]2(C)C3C[C@](C)(C(=O)O)CC[C@]3(C)CC[C@]12C (stereo not given in full),> 4 mM (inactive)
22,Cc1n[nH]c(=S)n(/N=C/c2cccs2)c1=O,> 4 mM (inactive)
23,CC(=O)c1ccc(NC(=O)c2ocnc2C)cc1,> 4 mM (inactive)

# Reference: PubChem BioAssay AID1549 (Sanford-Burnham Center for Chemical Genomics, 2009)
